Patent US20210290580A1, “New use of carbamate ß phenylethanolamine analogues for enhancing intracellular clearance of LDL cholesterol and for combining therapy with statins to enhance the efficacy and reduce adverse effects” (priority 2018, published 2021)

Legend:
Mouse liver AML12 cells [1] = assay: Intracellular cholesterol content in AML12 cells loaded with LDL; assay type: cell-based; conditions: for Intracellular cholesterol MEAN % (Synergistic Effects of Combining R-bambuterol and Statin): 10 μM (each drug 10 μM in the combination), LDL 40 μg/ml, AML12 cells, LDL Ctrl = 100; for Reduction of intercellular cholesterol, in words: 10 μM, Mouse liver AML12 cells
Method: (§1) Cells were then treated with different doses of R-bambuterol (R-BM) in the present of LDL (40 μg/ml). After 24 hours of incubation, total intracellular and extracellular cholesterol content were determined using Total Cholesterol Assay Kit E105 (Applygen Technologies Inc., Beijing, China) according to the manufacturer's protocol. The intracellular cholesterol is similar in control and LDL groups.

LDL receptors = assay: LDL receptor expression, anti-LDLR immunofluorescence in liver cells; assay type: cell-based, Mouse; conditions: 24 hours; for Up-regulating of LDL receptors (Intensity of fluoresces) MEAN %: hepatic (AML12) cells, control = 100
Method: Cells were incubated with florescence labeled LDL to study the up-taking and metabolite of LDL cholesterol by the cells. LDL specific antibody were used to study LDL receptors expressed by the cells. […] After 24 hours of treatments, the cells were washed and fixed with paraformaldehyde. Cells were then incubated with anti-LDLR primary antibody with 1:200 dilution at room temperature for 4 hours. After washed, the second antibody Alexa Fluor 488 with 1:200 dilutions was added and incubated at room temperature for 2 hours. The cells were washed again before examined under fluorescent microscope. The fluorescence anti-body bound LDL receptors in green and either bound or internalized fluoresces labeled LDL in red were examined separately or after merging. Fluorescent microscope equipped with a digital camera (Axio Observer 7). Computer software was used to quantify the intensity of fluorescence, which is correlated with the amount of LDL and LDL receptors bounded to antibodies.

Human liver HepG2 cells = assay: Intracellular cholesterol content in HepG2 cells loaded with LDL (Total Cholesterol Assay Kit); assay type: cell-based; conditions: LDL 40 μg/ml, 24 hours, LDL control = 100
Method: as §1, with “Human liver HepG2 cells were seeded in six well plates in DMEM/F12 supplemented with 10% heat-inactivated fetal bovine serum. Cells” for “Cells”, “protocol.” for “protocol. The intracellular cholesterol is similar in control and LDL groups.”

Mouse liver AML12 cells [2] = assay: Up-taking of fluorescence labeled LDL by liver cells; assay type: cell-based; conditions: 10 μM and 20 μM, 24 hours, compared between groups
Method: Mouse liver AML12 cells were seeded in 24 well plates in DMEM/F12 and supplemented with 10% heat-inactivated fetal bovine serum. Cells were incubated with florescence labeled LDL to study the up-taking and metabolite of LDL cholesterol by the cells. LDL specific antibody were used to study LDL receptors expressed by the cells. […] The fluorescence anti-body bound LDL receptors in green and either bound or internalized fluoresces labeled LDL in red were examined separately or after merging. Fluorescent microscope equipped with a digital camera (Axio Observer 7). Computer software was used to quantify the intensity of fluorescence, which is correlated with the amount of LDL and LDL receptors bounded to antibodies.

[3] = test system: Pulmonary artery smooth muscle cell (PASMC)
Method: Cells were cultivated for 24 hours at room temperature. The cells then replaced again with FBS-free medium containing 10% CCK-8 reagent and cultivated for 3 hours in the dark.
A Multi-function micro plate reader (TriStar2S LB942) was used to measure the cell viability.
Cells added no drugs (0 μM) were used as control.

[4] = 20 μM (each drug 20 μM in the combination)

SMILES | Intracellular cholesterol MEAN % (Synergistic Effects of Combining R-bambuterol and Statin) (Mouse liver AML12 cells [1]) [%] | Reduction of intercellular cholesterol, in words (Mouse liver AML12 cells [1]) | Up-regulating of LDL receptors (Intensity of fluoresces) MEAN % (LDL receptors; 10 μM) [%] | Up-regulating of LDL receptors (Intensity of fluoresces) MEAN % (LDL receptors; [4]) [%] | Reduction of intercellular LDL cholesterol MEAN % (Human liver HepG2 cells; 5 μM) [%] | Reduction of intercellular LDL cholesterol MEAN % (Human liver HepG2 cells; 10 μM) [%] | Reduction of intercellular LDL cholesterol MEAN % (Human liver HepG2 cells; 20 μM) [%] | Reduction of intercellular LDL cholesterol MEAN % (Human liver HepG2 cells; 40 μM) [%] | Reduction of intercellular LDL cholesterol MEAN % (Human liver HepG2 cells; 80 μM) [%] | Bound and intracellular fluorescence labeled LDL (Mouse liver AML12 cells [2]) | Increase in LDL receptors expression compared with statin treated groups (LDL receptors; AML12 cells) | Toxicity to the viability of PASMC, in words [3]
CC(C)c1c(C(=O)Nc2ccccc2)c(-c2ccccc2)c(-c2ccc(F)cc2)n1CC[C@@H](O)C[C@@H](O)CC(=O)O [Statin, Atorvastatin] | 95.3 | little effects on intercellular cholesterol | 159.1 | 140.2 | – | – | – | – | – | – | – | –
CN(C)C(=O)Oc1cc(OC(=O)N(C)C)cc(C(O)CNC(C)(C)C)c1 (stereo not shown) [R-BM, R-bambuterol] | 94.5 | less reduction of intercellular cholesterol | 202.9 | 337.2 | 94.07 | 69.26 | 28.54 | 36.04 | 21.02 | significantly more bound and intracellular fluorescence labeled LDL | twice as much as seen in statin treated groups | no toxicity
